Measured values: patent US10683486B2, “Methods for producing hepatocytes” (BioLamina AB, priority 2015, dated 2020)
Read-outs that look alike come from different tables or passages of the source.

System: stem cell derived hepatocytes
Test: Hepatocyte function with Cameron and Avior procedures on laminin-221/laminin-521 substrates (Example 3)
Type: cell-based, human
Description: Stem-cell derived hepatocytes were produced from human embryonic stem cells on three different substrates. The first substrate was pure laminin-521 (LN-521). The second substrate was a mix of laminin-521 and laminin-221 in a weight ratio of 1:3 (221 (1:3)). The third substrate was a mix of laminin-221 and laminin-521 in a weight ratio of 1:1 (221 (1:1)). The Cameron procedure and the Avior procedure were compared to each other.
FIG. 13 is a set of two bar graphs showing hepatocyte function of the two procedures. […] Such benefits were not observed using both MK4 and LCA.

| SMILES | toxic effects on stem cell derived hepatocytes | toxic effects on stem cell derived hepatocytes (Avior procedure, LCA and MK4 together, cell death at day 18) |
| --- | --- | --- |
| CC(C)=CCC/C(C)=C/CC/C(C)=C/CC/C(C)=C/CC1=C(C)C(=O)c2ccccc2C1=O [MK4, vitamin K (MK4)] | major toxic effects | – |
| C[C@H](CCC(=O)O)[C@H]1CC[C@H]2[C@@H]3CC[C@@H]4C[C@H](O)CC[C@]4(C)[C@H]3CC[C@]12C [LCA, lithocholic acid] | – | major toxic effects |
